From publication PMC9003190, “MeNINV1: An Alkaline/Neutral Invertase Gene of Manihot esculenta, Enhanced Sucrose Catabolism and Promoted Plant Vegetative Growth in Transgenic Arabidopsis” (Plants, 2022)

T1: MeNINV1 (Manihot esculenta, UniProt G5DC09)
T1 construct: gene NINV1; full-length ORF in pDR195, expressed in invertase-deficient yeast SEY2102; crude enzyme supernatant, empty-vector control
T1 sequence (G5DC09 1-685): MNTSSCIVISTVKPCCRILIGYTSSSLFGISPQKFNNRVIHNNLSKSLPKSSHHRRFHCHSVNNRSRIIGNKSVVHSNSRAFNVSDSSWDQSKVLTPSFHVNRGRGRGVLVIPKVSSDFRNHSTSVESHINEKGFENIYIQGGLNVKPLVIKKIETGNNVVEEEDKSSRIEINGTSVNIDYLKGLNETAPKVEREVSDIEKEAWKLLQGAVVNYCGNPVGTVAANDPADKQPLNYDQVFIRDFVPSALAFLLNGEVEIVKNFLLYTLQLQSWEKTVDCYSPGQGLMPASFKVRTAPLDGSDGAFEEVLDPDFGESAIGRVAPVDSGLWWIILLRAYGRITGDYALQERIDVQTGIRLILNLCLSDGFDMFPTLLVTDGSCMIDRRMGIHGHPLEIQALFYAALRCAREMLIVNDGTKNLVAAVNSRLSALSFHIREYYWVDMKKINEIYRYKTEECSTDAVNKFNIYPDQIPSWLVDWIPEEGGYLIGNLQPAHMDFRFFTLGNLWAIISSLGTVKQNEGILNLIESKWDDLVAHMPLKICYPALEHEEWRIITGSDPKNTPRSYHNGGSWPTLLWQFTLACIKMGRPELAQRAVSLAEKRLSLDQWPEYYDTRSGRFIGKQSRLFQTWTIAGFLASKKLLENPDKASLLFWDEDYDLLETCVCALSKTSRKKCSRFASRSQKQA

B1: MeNINV1 (Manihot esculenta) (protein)
chain: T1 sequence (G5DC09 1-685)
notes: full-length ORF in pDR195, expressed in invertase-deficient yeast SEY2102; crude enzyme supernatant, empty-vector control

How the values were obtained:
MeNINV1 = biological target: T1, MeNINV1; experiment: DNS reducing sugar assay, crude yeast extract; assay type: biochemical; details: product inhibition of sucrose hydrolysis; pH 6.5
[1] = substrate: OC[C@H]1O[C@@](CO)(O[C@H]2O[C@H](CO)[C@@H](O)[C@H](O)[C@H]2O)[C@@H](O)[C@@H]1O; experiment: DNS reducing sugar assay, crude yeast extract; assay type: biochemical, Manihot esculenta; details: pH 6.5, optimum temperature 40 °C

Molecule | DNS reducing sugar assay, crude yeast extract (MeNINV1) | Km [1] [mM]
OCC1(O)OC[C@@H](O)[C@@H](O)[C@@H]1O (some centres unmarked) [fructose] | The addition of fructose, a decomposition product of sucrose, to the reaction solution inhibited | –
B1 | – | 10.59
